# Literature values in patent US20080096864A1, “Treatment Of Gastrointestinal Stromal Tumors With Imatinib And Midostaurin” (priority 2003, published 2008).
# System: advanced GIST
# Conditions: GIST patients on imatinib, one study
structure (smiles),measurement,value
Cc1ccc(NC(=O)c2ccc(CN3CCN(C)CC3)cc2)cc1Nc1nccc(-c2cccnc2)n1 [imatinib],"primary resistance to imatinib, share of patients",13.7 % of patients
